Data reported in PMC2376372, “3-Bromophenyl 6-acetoxymethyl-2-oxo-2H-1-benzopyran-3-carboxylate inhibits cancer cell invasion in vitro and tumour growth in vivo” (British Journal of Cancer, 2003).
Read-outs that look alike come from different tables or passages of the source.

Columns and labels:
[1] = system: HT1080 fibrosarcoma cells; assay: Chemotaxis assay, uncoated Transwell inserts; format: cell-based, human; conditions: 1 μM, 4 h, uncoated filters
Protocol: (§1) HT1080 cells exponentially growing in T-75 flasks (Nunc, Costar, Netherlands) were collected by trypsin–ethylenediaminetetraacetic acid treatment, washed with serum-containing medium and allowed to recover from trypsinisation for at least 30 min at 37°C. Cells were then washed twice in serum-free DMEM and diluted in the same medium supplemented with 0.1% bovine serum albumin (BSA, fraction V, Sigma, USA) to a cell density of 6 × 10^5 cells ml^−1.
(§2) The influence of coumarin derivatives (0.1, 1 and 10 μM) on HT1080 cell invasion and migration was assayed using Transwell cell culture inserts (Costar) and compared to the reference compound GI 129471 (1 μM), an MMP inhibitor ([Wheeler et al, 1998]).
(§3) For chemoinvasion assays, type IV collagen-coated membranes (see above) were used, whereas uncoated membranes were employed for chemotaxis assays. Lower wells of chambers were filled with DMEM supplemented with 20% FCS and 1% BSA (fraction V, ICN) as chemoattractant, in the presence or absence of coumarin derivative (final concentration 0.1, 1 and 10 μM) or GI 129471 (final concentration 1 μM). Cells (6 × 10^4) suspended in DMEM supplemented with 0.1% BSA (fraction V, ICN) were seeded in the upper wells. Chambers were subsequently incubated for 48 and 4 h for chemoinvasion and chemotaxis assays, respectively, in a humid atmosphere at 37°C (in order to maintain a chemotactic gradient, media from both lower and upper wells were renewed after 24 h). After incubation, filters were removed from the chambers, fixed in 4% paraformaldehyde for 15 min (4°C), permeabilised for 10 min in methanol (−20°C) and stained with Giemsa (4%) for 15 min. The upper surface of the filters was scrapped with a cotton swab and cells having reached the lower surface of the filters were visually counted using a light microscope (Vanox AH3, Olympus, Hamburg, Germany) at 20-fold magnification. Each assay was performed in triplicate. Results were expressed as percentages (±s.d.) of the migration of control cells.

[2] = system: HT1080 fibrosarcoma cells; assay: Chemoinvasion assay, type IV collagen-coated Transwell inserts (Boyden chamber); format: cell-based, human; conditions: type IV collagen-coated filters; for inhibition of HT1080 cell invasion (chemoinvasion) / inhibition at 1 µM: 1 μM; for inhibition of HT1080 cell invasion (chemoinvasion): 48 h; for inhibition at 1 µM / inhibition at 10 µM: Homo sapiens, HT-1080, 48 h, read-out: inhibition of HT1080 cell invasion (chemoinvasion)
Protocol: Plates (24-well) (Falcon, Becton-Dickinson, USA) and 6.5 mm polycarbonate filters (8 μm pore size) of Transwell cell culture chamber inserts (Costar, Netherlands) were coated with 100 μl of type IV collagen purified from human placenta diluted at 200 μg ml^−1 in phosphate-buffered saline (PBS). Coats were left to air-dry overnight in a laminar flow hood under UV light. Uniformity of the coating was assessed by Coomassie blue staining. Before use, coated plates and inserts were washed twice with water and incubated for at least 1 h in serum-free DMEM at 37°C ([Maquoi et al, 1999]).
as §1, §2, §3

HLE = target: T1, HLE (Homo sapiens, UniProt P08246); conditions: cited from earlier work; for ki/KI or kobs/[I], HLE: pH 8.0, 25°C
T1 construct: purchased Elastase Products Co
T1 sequence (P08246 30-267): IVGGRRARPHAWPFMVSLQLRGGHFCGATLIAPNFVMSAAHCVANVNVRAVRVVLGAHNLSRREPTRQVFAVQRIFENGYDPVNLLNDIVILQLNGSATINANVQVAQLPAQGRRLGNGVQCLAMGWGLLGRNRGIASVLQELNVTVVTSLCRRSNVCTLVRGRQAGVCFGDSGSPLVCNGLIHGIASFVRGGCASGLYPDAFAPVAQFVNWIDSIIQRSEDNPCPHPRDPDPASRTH

α-CT = conditions: cited from earlier work; for ki/KI or kobs/[I], α-CT: pH 7.5, 25°C
LMW-uPA = target: T2, LMW-uPA (Homo sapiens, UniProt P00749); assay: Inactivation of LMW-uPA (preincubation method); format: biochemical
T2 construct: Bovine α-CT and LMW-uPA (MW=33 000 Da) were purchased from Sigma; purchased Sigma
Protocol: (§4) Bovine α-CT and LMW-uPA (MW=33 000 Da) were purchased from Sigma, HMW-uPA (MW=54 000 Da) from Choay, trypsin (TRY) and THR from Boehringer-Indelheim (Germany), and MMP-2 and MMP-9 from Calbiochem. Human leucocyte elastase and PM were from Elastase Products Co. and Biogenic, respectively. Except for THR, HMW-uPA, MMP-2 and MMP-9, enzyme concentrations were determined by active-site titrations using the appropriate titrant ([Bender et al, 1966]; [Chase and Shaw, 1970]; [Powers and Gupton, 1977]). […]
(§5) The kinetic parameters for the inhibition were determined either by the preincubation method for LMW-uPA and PM (small aliquots of the reaction mixture were withdrawn at intervals of time and the remaining activity determined), or by the progress curve method (HLE) when the inhibition was too fast to be measured accurately using the preincubation method. […]
(§6) At low inhibitor concentrations, the ratio ki/KI was obtained as kobs/[I]0. […] In the progress curve method, the substrate competes with the inhibitor and the kinetic parameters are determined as previously described ([Doucet et al, 1999]). […]

Plasmin = target: T3, Plasmin (Homo sapiens, UniProt P00747); assay: Inactivation of plasmin (preincubation method); format: biochemical; conditions: pH 7.5, read-out: ki/KI or kobs/[I], Plasmin
T3 construct: No; X′; α-CT; HLE; LMW-uPA; Plasmin; purchased Biogenic
Protocol: as §4, §5, §6

T3 sequence (P00747 581-810 limits assumed, species assumed): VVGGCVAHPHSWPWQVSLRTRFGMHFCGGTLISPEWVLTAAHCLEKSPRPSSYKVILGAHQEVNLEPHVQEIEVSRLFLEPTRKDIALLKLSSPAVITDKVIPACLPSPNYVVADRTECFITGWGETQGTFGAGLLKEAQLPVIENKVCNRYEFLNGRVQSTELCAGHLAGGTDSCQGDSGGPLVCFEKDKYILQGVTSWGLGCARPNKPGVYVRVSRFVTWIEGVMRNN
T3 sequence (P00747 97-580 partner limits assumed, species assumed): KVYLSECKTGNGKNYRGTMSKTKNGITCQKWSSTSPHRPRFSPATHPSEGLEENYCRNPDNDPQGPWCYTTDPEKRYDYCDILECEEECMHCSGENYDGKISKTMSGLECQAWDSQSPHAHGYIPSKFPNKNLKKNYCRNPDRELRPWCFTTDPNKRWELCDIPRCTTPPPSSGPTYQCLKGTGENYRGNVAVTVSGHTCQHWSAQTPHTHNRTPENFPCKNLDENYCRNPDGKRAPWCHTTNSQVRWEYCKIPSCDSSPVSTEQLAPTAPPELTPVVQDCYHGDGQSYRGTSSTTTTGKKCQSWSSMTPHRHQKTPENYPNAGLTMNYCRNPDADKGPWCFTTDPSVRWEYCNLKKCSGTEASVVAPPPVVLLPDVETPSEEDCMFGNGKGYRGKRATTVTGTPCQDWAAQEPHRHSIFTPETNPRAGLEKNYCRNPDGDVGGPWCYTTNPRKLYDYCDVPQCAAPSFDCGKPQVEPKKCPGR

## CNC(=O)[C@H](Cc1ccccc1)NC(=O)[C@H](CC(C)C)[C@H](CSc1ccccc1)C(=O)NO [GI 129471, reference compound]
[1]
  chemotaxis inhibition: 30%
[1]; listed as reference compound
  chemotaxis inhibition: 20–30%
[2]
  inhibition of HT1080 cell invasion (chemoinvasion): 60%

## O=C(Oc1cccc(Cl)c1)c1cc2ccccc2oc1=O [compound 1]
HLE; ref Pochet et al (2000)
  ki/KI or kobs/[I], HLE: 610^a M^−1 s^−1
α-CT; ref Pochet et al (2000)
  ki/KI or kobs/[I], α-CT: <500^a M^−1 s^−1
[2]
  inhibition at 1 µM: 50%
  inhibition at 10 µM: 65%

## Cc1ccc2oc(=O)c(C(=O)Oc3cccc(Cl)c3)cc2c1 [compound 2]
HLE; ref Pochet et al (2000)
  ki/KI or kobs/[I], HLE: 1100^a M^−1 s^−1
α-CT; ref Pochet et al (2000)
  ki/KI or kobs/[I], α-CT: 9400^a M^−1 s^−1
[2]
  inhibition at 1 µM: 50%
  inhibition at 10 µM: 70%

## O=C(Oc1cccc(Cl)c1)c1cc2cc(CCl)ccc2oc1=O [compound 3, 3-chlorophenyl 6-chloromethyl-2-oxo-2H-1-benzopyran-3-carboxylate]
HLE; ref Pochet et al (1996)
  ki/KI or kobs/[I], HLE: 630^b M^−1 s^−1
HLE; ref Pochet et al, 1996, 2000
  mode of inhibition of HLE: transiently inactivated
LMW-uPA; pH 7.5, read-out: ki/KI or kobs/[I], LMW-uPA
  kinact/KI: 336 M⁻¹ s⁻¹
LMW-uPA; spontaneously after 18 h incubation or after treatment with NH2OH (pH 7.5, 25°C)
  reactivation of inhibited LMW-uPA: No reactivation
Plasmin
  kinact/KI: 600 M⁻¹ s⁻¹
α-CT; ref Pochet et al (1996)
  ki/KI or kobs/[I], α-CT: 762700^b M^−1 s^−1
α-CT; ref Pochet et al, 1996, 2000
  mode of inhibition of α-CT: suicide substrate leading to enzyme irreversible inhibition
[2]
  inhibition at 10 µM: 30%

## CC(=O)OCc1ccc2oc(=O)c(C(=O)Oc3ccccc3)cc2c1 [compound 5]
[2]
  inhibition at 1 µM: 30%
  inhibition at 10 µM: 50 to 60%

## CC(=O)OCc1ccc2oc(=O)c(C(=O)Oc3cccc(F)c3)cc2c1 [compound 6]
[2]
  inhibition at 1 µM: 80%
other
  melting point: 170 to 172 °C

## CC(=O)OCc1ccc2oc(=O)c(C(=O)Oc3cccc(I)c3)cc2c1 [compound 8]
[2]
  inhibition of HT1080 cell invasion (chemoinvasion): quite similar to that observed with the reference compound
other
  melting point: 169 to 170 °C
